A short description of the series: Example 8 pharmacokinetics assay for PKPD study (plasma, tumor, liver). To be noted: 10 mg/kg, p.o., single dose; for concentration at 6 h / concentration at 1 h / concentration at 12 h / concentration at 24 h: mouse, po. It is filed as in vivo, BALB/c nude mice. The method, then:
For the PK and PD study, agents were administered to BALB/c nude mice bearing A375 human melanoma xenografts tumors. encorafenib, Compound 8, Compound 26, Compound 38, and Compound 39 were dosed p.o. once on day 1. Encorafenib was dosed at 35 mg/kg, Compound 8, Compound 26, Compound 38, and Compound 39 were dosed at 10 mg/kg. This study was non-GLP.
The plasma samples were collected at predetermined time points for PK analysis. For non-termination plasma collection, blood samples were collected into the 1.5 mL Eppendorf tubes containing 3 μL of 0.5 M EDTA-K2. For termination plasma collection, the mice were euthanized at predetermined time points post the treatment and the blood samples were collected into the 1.5 mL Eppendorf tubes containing 15 μL of 0.5 M EDTA-K2. And then the anticoagulant blood samples were centrifuged at 2,500 g at 4° C. for 15 minutes. The plasma samples were separated into 2 aliquots. The 1st was used for PK analysis, and the 2nd served as backup. The samples were stored at −80° C. before bioanalysis.
The tumor samples were collected at predetermined time points for PK and WB analysis. The tumor was dissected out and split into 3 parts. The 1st part was used for PK analysis, the 2nd part was used for WB analysis and the last one served as backup for study. The samples were transferred into pre-labeled tubes and quickly froze in liquid nitrogen within 2 minutes after dissection. The samples were stored at −80° C. before bioanalysis.
Liver samples were collected at predetermined time points for PK analysis. The left lobe of the liver was dissected out and split into 2 parts. The 1st part was used for PK analysis and the 2nd part served as the backup for the study. The samples were transferred into pre-labeled tubes and quickly froze in liquid nitrogen within 2 minutes after dissection. The samples were stored at −80° C. before bioanalysis.
The harvested plasma and liver samples were processed for pharmacokinetics analysis by LC-MS/MS with a concentration range of 0.200~200 ng/mL for encorafenib in plasma and liver homogenate, and 0.100-100 ng/ml in tumor homogenate, 1.00-1000 ng/mL for Compound 8 in plasma and 0.500~500 ng/ml in tumor and liver homogenate, 50.0~50,000 ng/mL for Compound 26 and Compound 38 in plasma, 5.0~5000 ng/ml in liver and 2.00~2000 ng/ml in tumor homogenate, 1.00-1000 ng/mL for Compound 39 in plasma and 0.500~500 ng/mL in liver and tumor homogenate.

Where [1] appears, read: liver, 6 h, read-out: Concentration in Liver (mean ± SEM).
[2] abbreviates: plasma, 1 h, read-out: Concentration in Plasma (mean ± SEM).
Setting [3] is: plasma, 6 h, read-out: Concentration in Plasma (mean ± SEM).
The mark [4] stands for this setting: plasma, 12 h, read-out: Concentration in Plasma (mean ± SEM).
The mark [5] stands for this setting: tumor, 1 h, read-out: Concentration in Tumor (mean ± SEM).
Setting [6] is: tumor, 6 h, read-out: Concentration in Tumor (mean ± SEM).
The mark [7] stands for this setting: tumor, 12 h, read-out: Concentration in Tumor (mean ± SEM).

The values below come from patent US20260297060A1, “COMPOUNDS FOR THE DEGRADATION OF MUTANT BRAF” (C4 THERAPEUTICS, INC., priority 2023, published 2026).

Read-outs that look alike come from different tables or passages of the source.

Take `CCN(C)S(=O)(=O)Nc1ccc(F)c(Oc2ccc3ncn([C@H]4COC5(CCC(N6CCC(c7cc8c(cc7F)c(N7CCC(=O)NC7=O)nn8C)C(F)(F)C6)CC5)C4)c(=O)c3c2)c1C#N` (single isomer, unassigned) [Compound 38]: the “Concentration in Liver (mean ± SEM)” value (12 h, 720 min) is listed as 11243 ± 2595 ng/g. Moreover, for the setting “24 h, 1440 min”, the “Concentration in Plasma (mean ± SEM)” value is reported as 1797 ± 63.3 ng/mL. Besides, where the note is “24 h, 1440 min”, the “Concentration in Tumor (mean ± SEM)” value is 369 ± 42.6 ng/g. For the same compound, the concentration at 6 h came out at 25500 ± 3820 ng/g under setting [1], 16400 ± 1500 ng/mL under setting [3] and 3830 ± 736 ng/g under setting [6]. For the same compound, the concentration at 1 h by setting is: under setting [2], 32000 ± 3960 ng/mL; under setting [5], 3320 ± 523 ng/g. For the same compound, the concentration at 12 h came out at 6810 ± 795 ng/mL under setting [4] and 1990 ± 415 ng/g under setting [7].

With `CCN(C)S(=O)(=O)Nc1ccc(F)c(Oc2ccc3ncn([C@H]4COC5(CCC(N6CCC(c7cc8c(cc7F)c(N7CCC(=O)NC7=O)nn8C)C(F)(F)C6)CC5)C4)c(=O)c3c2)c1C#N` (single isomer, unassigned) [Compound 39], the “Concentration in Plasma (mean ± SEM)” value reads like this: (1 h, 60 min) 34700 ± 3785 ng/mL; (6 h, 360 min) 15700 ± 1358 ng/mL; (12 h, 720 min) 3973 ± 202 ng/mL; (24 h, 1440 min) 171 ± 20.8 ng/mL. Moreover, the “Concentration in Tumor (mean ± SEM)” value (1 h, 60 min) was 3423 ± 648 ng/g; the “Concentration in Tumor (mean ± SEM)” value (6 h, 360 min) was found to be 4713 ± 256 ng/g; the “Concentration in Tumor (mean ± SEM)” value (12 h, 720 min) was 1510 ± 43.6 ng/g; the “Concentration in Tumor (mean ± SEM)” value (24 h, 1440 min) is on record as 79.3 ± 25.3 ng/g. Also, the “Concentration in Liver (mean ± SEM)” value (6 h, 360 min) was determined as 18200 ± 1735 ng/g and the “Concentration in Liver (mean ± SEM)” value (12 h, 720 min) worked out at 5610 ± 455 ng/g.

On to `CCN(C)S(=O)(=O)Nc1ccc(F)c(Oc2ccc3ncn([C@H]4COC5(CCN(C6CC7(C6)CN(c6cc8c(cc6F)c(N6CCC(=O)NC6=O)nn8C)C7)CC5)C4)c(=O)c3c2)c1C#N` [Compound 26, (3R)-3-[6-[2-cyano-3-[[ethyl(methyl)sulfamoyl]amino]-6-fluoro-phenoxy]-4-oxo-quinazolin-3-yl]-8-[2-[3-(2,4-dioxohexahydropyrimidin-1-yl)-5-fluoro-1-methyl-indazol-6-yl]-2-azaspiro[3.3]heptan-6-yl]-1-oxa-8-azaspiro[4.5]decane], for which the concentration at 6 h came to 11800 ± 551 ng/g under setting [1], 20800 ± 2930 ng/mL under setting [3] and 3770 ± 478 ng/g under setting [6]. The concentration at 12 h stood at 3250 ± 601 ng/g (liver, 12 h, read-out: Concentration in Liver (mean ± SEM)); 4600 ± 1140 ng/mL under setting [4]; 1400 ± 226 ng/g under setting [7]. Besides, the concentration at 1 h is, setting by setting: under setting [2], 29100 ± 733 ng/mL; under setting [5], 1900 ± 320 ng/g. In addition, the concentration at 24 h is 162 ± 15.3 ng/mL (plasma, 24 h, read-out: Concentration in Plasma (mean ± SEM)) and 64.9 ± 19.9 ng/g (tumor, 24 h, read-out: Concentration in Tumor (mean ± SEM)).
